Results as given in US8399417B2, “Food” (Ajinomoto Co., Inc., priority 2007, dated 2013).
Starred links: 1 amine or outer side, 2 acyl side, 3 side chain; linkers in the order of their positions; H or OH if unused. Non-standard residues stand in square brackets, D forms with d. No end group written: not given here. γGlu = O=C(O)[C@H](CCC(=O)[*:2])N[*:1]; Abu = CC[C@H](N)C(=O)O

Legend:
[1] = Fat-like richness and smoothness imparted to low-calorie mayonnaise, quantitative sensory evaluation test; type: in vivo, human; settings: for Fat-like richness / Smoothness: control 0, strong 3, very strong 5 points
Experimental: In the same manner as that in Example 1 except that commercially-available low-calorie mayonnaise (having a fat content reduced by 50% compared with a normal product) was used instead of low-fat milk, each peptide was measured for its fat-like richness-imparting intensity.
In the same manner as that in Example 2, each sample was measured for its intensity of imparting fat-like richness.

human calcium receptor = target: T1, human calcium receptor (Homo sapiens, UniProt P41180); assay: Calcium receptor-activating effect: Ca ion concentration-dependent Cl ionic current in Xenopus laevis oocyte expression system; type: cell-based; settings: for Activity (lowest concentration at which current was detected): peptide added at 1,000 to 0.1 μM to potential-clamped oocytes, Table 1
T1 construct: expressed in transfected cells; host or cells: Xenopus laevis oocytes injected with cRNA; the gene was PCR-cloned from human kidney cDNA (Clontech) into pBR322
T1 sequence (P41180 20-1078): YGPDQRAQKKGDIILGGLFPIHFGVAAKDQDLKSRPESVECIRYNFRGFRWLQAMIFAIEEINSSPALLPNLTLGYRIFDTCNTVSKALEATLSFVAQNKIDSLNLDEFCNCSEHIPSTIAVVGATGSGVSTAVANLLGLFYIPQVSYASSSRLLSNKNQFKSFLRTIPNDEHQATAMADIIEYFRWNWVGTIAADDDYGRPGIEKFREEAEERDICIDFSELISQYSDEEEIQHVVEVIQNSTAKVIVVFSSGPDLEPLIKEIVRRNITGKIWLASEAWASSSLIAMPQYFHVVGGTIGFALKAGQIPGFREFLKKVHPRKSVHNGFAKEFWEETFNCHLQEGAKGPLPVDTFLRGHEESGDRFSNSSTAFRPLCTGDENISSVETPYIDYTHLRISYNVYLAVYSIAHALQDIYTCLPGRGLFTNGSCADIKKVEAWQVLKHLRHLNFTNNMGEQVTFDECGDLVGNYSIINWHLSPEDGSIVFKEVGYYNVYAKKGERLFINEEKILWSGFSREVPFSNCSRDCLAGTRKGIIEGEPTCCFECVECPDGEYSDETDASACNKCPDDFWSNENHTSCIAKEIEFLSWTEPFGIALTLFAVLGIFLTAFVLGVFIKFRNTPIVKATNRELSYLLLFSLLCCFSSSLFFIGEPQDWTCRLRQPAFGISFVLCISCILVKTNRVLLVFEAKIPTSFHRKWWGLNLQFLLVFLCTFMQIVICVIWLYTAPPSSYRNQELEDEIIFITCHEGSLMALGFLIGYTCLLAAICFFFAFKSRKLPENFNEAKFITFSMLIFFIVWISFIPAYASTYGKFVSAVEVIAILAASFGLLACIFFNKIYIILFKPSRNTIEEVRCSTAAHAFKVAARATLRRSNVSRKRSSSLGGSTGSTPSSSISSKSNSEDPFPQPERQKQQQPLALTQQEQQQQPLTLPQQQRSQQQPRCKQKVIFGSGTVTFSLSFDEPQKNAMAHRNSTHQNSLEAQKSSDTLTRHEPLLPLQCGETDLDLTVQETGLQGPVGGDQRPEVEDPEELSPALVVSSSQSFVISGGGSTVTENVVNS
Experimental: For evaluation of the calcium receptor-activating effect, a Ca ion concentration-dependent Cl ionic current measuring method using a Xenopus laevis oocyte expression system was used. If each activator is added to Xenopus laevis oocytes expressing the calcium receptor, intracellular Ca ions increase. Then, the Ca ion concentration-dependent Cl channel opens, and the intracellular current value changes as an ionic current. By measuring the change in the intracellular current value, whether the calcium receptor-activating effect is present or not can be determined.
Specifically, the abdomen of Xenopus laevis was opened, and an egg batch was taken out and then treated with a 1% collagenase solution at 20° C. for 2 hours to obtain individual oocytes. Into the oocytes, 50 nl of 1 μg/μl receptor cRNA or 50 nl of sterilized water per oocyte were injected by using a micro glass capillary, and the oocytes were cultured at 18° C. for 2 to 3 days. For the culture, a solution obtained by adding 2 mM pyruvic acid, 10 U/ml penicillin, and 10 μg/ml streptomycin to the solution in Reference Example 2 was used. After the culture, a test solution was added to the oocytes injected with cRNA or sterilized water. Electrophysiological measurement was performed by using an amplifier Geneclamp 500 (manufactured by Axon) and recording software AxoScope 9.0 (manufactured by Axon). The oocytes were membrane potential-clamped at −70 mV by the double electrode potential clamp method, and the intracellular current via the Ca ion concentration-dependent Cl ion was measured. The maximum value of the intracellular current was defined as the response current value.
The calcium receptor-activating effect of L-amino acids was evaluated by using the method described in Reference Example 6. That is, oocytes injected with cRNA of the calcium receptor or sterilized water were prepared, and membrane potential-clamped at −70 mV by the double electrode potential clamp method. To the potential-clamped oocytes, alanine (10 mM), arginine (10 mM), asparagine (10 mM), aspartic acid (10 mM), cysteine (10 mM), glutamine (10 mM), glutamic acid (10 mM), glycine (10 mM), histidine (10 mM), isoleucine (10 mM), leucine (10 mM), lysine (10 mM), methionine (10 mM), phenylalanine (10 mM), proline (10 mM), serine (10 mM), threonine (10 mM), tryptophan (10 mM), tyrosine (10 mM), valine (10 mM), ornithine (10 mM), taurine (10 mM), or hydroxyproline (10 mM) was added, and Ca ion concentration-dependent Cl response current was measured. […] 25, 2000, 97(9): 4814-9.
The calcium receptor-activating effect of D-cysteine was evaluated by using the method described in Reference Example 6. That is, oocytes injected with cRNA of the calcium receptor or sterilized water were prepared, and membrane potential-clamped at −70 mV by the double electrode potential clamp method. To the potential-clamped oocytes, D-cysteine (10 mM), L-cysteine (10 mM), D-tryptophan (10 mM), or L-tryptophan (10 mM) was added, and Ca ion concentration-dependent Cl response current was measured.
The calcium receptor-activating effect of a peptide was evaluated by using the method described in Reference Example 6. That is, oocytes injected with cRNA of the calcium receptor or sterilized water were prepared, and membrane potential-clamped at −70 mV by the double electrode potential clamp method.
The calcium receptor-activating effects of peptides were evaluated in the same manner as that of Reference Example 10. Each of the peptides shown in Table 1 was added to potential-clamped oocytes at 1,000 μM, 300 μM, 100 μM, 30 μM, 10 μM, 3 μM, 1 μM, 0.3 μM, and 0.1 μM, and Ca ion concentration-dependent Cl response current was measured.

[2] = Kokumi-imparting activity intensity, quantitative sensory evaluation test; type: in vivo, human; design: key: *: Unmeasurable: kokumi-imparting activity is too strong to measure by sensory evaluation
Experimental: The quantitative sensory evaluation test was performed as follows. […] It should be noted that a sample, which became acidic after the sample had been dissolved, was adjusted with NaOH to pH 6.8 to 7.2 before use. […] The test was performed with n=3 based on the following sensory evaluation scores: control (0 point) and glutathione addition (3 points).
The quantitative sensory evaluation test was performed as follows. […] It should be noted that a sample, which became acidic after the sample had been dissolved, was adjusted with NaOH to pH 6.8 to 7.2 before use. The test was performed with n=5 based on the following sensory evaluation scores: control (0 point) and glutathione addition (3 points).
The quantitative sensory evaluation test was performed as follows. […] It should be noted that a sample, which became acidic after the sample had been dissolved, was adjusted with NaOH to pH 6.8 to 7.2 before use. The test was performed with n=12 based on the following sensory evaluation scores: control (0 point) and glutathione addition (3 points).

[3] = 0.01 g/dl in low-calorie mayonnaise (fat reduced by 50%), Table 7
[4] = 0.01 g/dl in low-calorie mayonnaise, Table 7
[5] = 0.1 g/dl, n=5, control 0, glutathione 3 points, Table 4
[6] = 0.1 g/dl, n=12, control 0, glutathione 3 points, Table 5
[7] = 0.0001 g/dl in low-calorie mayonnaise, Table 7
[8] = 0.001 g/dl in low-calorie mayonnaise, Table 7
[9] = 0.001 g/dl in low-calorie mayonnaise, Table 9
[10] = 0.01 g/dl, n=5, control 0, glutathione 3 points, Table 4
[11] = 0.01 g/dl, n=12, control 0, glutathione 3 points, Table 5

In the case of `N[C@@H](CCC(=O)N[C@@H](CS)C(=O)NCC(=O)O)C(=O)O` [γ-Glu-Cys-Gly, reference compound], the Fat-like richness [1, 3] is reported as 3.5 points, the Taste profile [1, 4] is reported as “Fat-like richness with sweet” and the Smoothness [1, 4] is reported as 3.0 points. The “calcium receptor-activating effect (Cl response current)” value (human calcium receptor; peptide 50 μM, FIG. 4) was “definite calcium receptor-activating effect”, the Taste profile ([2]; 0.1 g/dl, n=3, Table 3) was “Thickness, growth, and continuity” and the “Kokumi intensity, Aftertaste” value ([2]; 0.1 g/dl, n=3, control 0, glutathione 3 points, Table 3) was 3.0 points. For the same compound, the “Kokumi intensity, Aftertaste” value [2, 5] was 3.0 points, the “Kokumi intensity, Initial and middle taste” value [2, 5] was 3.0 points and the “Kokumi intensity, Aftertaste” value [2, 6] was 3.0 points. For the same compound, the “Kokumi intensity, Initial and middle taste” value [2, 6] was 3.0 points and the “Kokumi intensity, Initial and middle taste” value ([2]; 0.1 g/dl, sodium glutamate, inosine monophosphate, sodium chloride solution, n=3, control 0, glutathione 3 points, Table 3) was 3.0 points.
For [γGlu]-Val-Gly, the Taste profile [1, 7] was “Taste is enhanced in middle”, the Fat-like richness [1, 7] was 3.0 points and the Smoothness [1, 7] was 3.0 points. The Taste profile [1, 8] was “Taste is enhanced in middle”, the Taste profile [1, 9] was “Taste is enhanced in middle” and the Fat-like richness [1, 8] was 4.8 points. The Smoothness [1, 8] was 4.5 points, the Fat-like richness [1, 9] was 4.8 points and the Smoothness [1, 9] was 4.5 points. The “Activity (lowest concentration at which current was detected)” value (human calcium receptor) was 0.1 µM, the “Kokumi intensity, Aftertaste” value [2, 10] was 3.0 points and the “Kokumi intensity, Initial and middle taste” value [2, 10] was 3.0 points. The “Kokumi intensity, Aftertaste” value [2, 11] was 3.0 points, the “Kokumi intensity, Initial and middle taste” value [2, 11] was 3.0 points and the “Kokumi intensity, Aftertaste” value ([2]; 0.1 g/dl, n=5, Table 4) was “*”. For the same compound, the “Kokumi intensity, Initial and middle taste” value ([2]; 0.1 g/dl, n=5, Table 4) was “*” and the Taste profile ([2]; 0.1 g/dl, n=5, Table 4) was “*”.
In the case of [γGlu]-[Abu]-Gly, the Taste profile [1, 8] is reported as “Fat-like richness with sweet”, the Fat-like richness [1, 8] is reported as 3.2 points and the Smoothness [1, 8] is reported as 3.0 points. The Fat-like richness [1, 3] was 4.7 points, the Taste profile [1, 4] was “Fat-like richness with sweet” and the Smoothness [1, 4] was 4.3 points. The “Activity (lowest concentration at which current was detected)” value (human calcium receptor) was 3 µM, the “Kokumi intensity, Aftertaste” value [2, 11] was 2.0 points and the “Kokumi intensity, Initial and middle taste” value [2, 11] was 3.0 points.
